Experiments:
Assay type in all cases: biochemical
[1] = target: c-Src kinase (Homo sapiens, UniProt P12931); test: c-Src kinase inhibition; conditions: Table 4; read-out: s-Scr, activity (IC50 for kinase inhibition)
Excerpt: An appropriate assay is described in Andrejauskas-Buchdunger et al., Cancer Res. 52, 5353-8 (1992).

[2] = target: T1, c-Abl kinase (Homo sapiens, UniProt P00519); test: c-Abl protein-tyrosine kinase filter binding assay; conditions: Table 4; read-out: c-abl, activity (IC50 for kinase inhibition)
T1 construct: The His-tagged kinase domain of c-Abl is cloned and expressed in the baculovirus/Sf9 system; His; made in house; host or cells: Sf9 (baculovirus)
T1 sequence (P00519 242-493 limits assumed): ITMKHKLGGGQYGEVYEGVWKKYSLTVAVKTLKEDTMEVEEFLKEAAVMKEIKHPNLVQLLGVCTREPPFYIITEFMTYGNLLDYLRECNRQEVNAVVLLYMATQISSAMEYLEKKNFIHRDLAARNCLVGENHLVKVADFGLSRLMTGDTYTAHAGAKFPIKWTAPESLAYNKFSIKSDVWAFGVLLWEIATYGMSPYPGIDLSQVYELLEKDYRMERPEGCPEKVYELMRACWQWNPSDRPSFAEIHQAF
Method: The His-tagged kinase domain of c-Abl is cloned and expressed in the baculovirus/Sf9 system as described by Bhat et al. in J. Biol. Chem. 1997; 272:16170-16175. A protein of 37 kD (c-Abl kinase) is purified by a two-step procedure over a Cobalt metal chelate column followed by an anion exchange column with a yield of 1-2 mg/L of Sf9 cells (Bhat et al., reference cited). The purity of the c-Abl kinase is >90% as judged by SDS-PAGE after Coomassie blue staining. The assay contains (total volume of 30 μL): c-Abl kinase (50 ng), 20 mM Tris.HCl, pH 7.5, 10 mM MgCl2, 10 μM Na3VO4, 1 mM DTT and 0.06 μCi/assay [γ^33 P]-ATP (5 μM ATP) using 30 μg/mL poly-Ala,Glu,Lys,Tyr-6:2:5:1 (Poly-AEKY, Sigma P1152) in the presence of 1% DMSO. Reactions are terminated by adding 10 μL of 250 mM EDTA and 30 μL of the reaction mixture is transferred onto Immobilon-PVDF membrane (Millipore, Bedford, Mass., USA) previously soaked for 5 min with methanol, rinsed with water, then soaked for 5 min with 0.5% H3PO4 and mounted on vacuum manifold with disconnected vacuum source. After spotting all samples, vacuum is connected and each well rinsed with 200 μL 0.5% H3PO4. Membranes are removed and washed on a shaker with 0.5% H3PO4 (4 times) and once with ethanol. Membranes are counted after drying at ambient temperature, mounting in Packard TopCount 96-well frame, and addition of 10 μL/well of Microscint™ (Packard).

[3] = target: T2, human Flt-3 (Homo sapiens, UniProt P36888); test: Flt3 kinase inhibition, GST-Flt-3, 33P incorporation into poly(Glu,Tyr); conditions: Table 4; read-out: Flt-3, activity (IC50 for kinase inhibition)
T2 construct: expressing the amino acid region amino acids 563-993 of the cytoplasmic kinase domain of human Flt-3; made in house; host or cells: Sf9 (baculovirus)
T2 sequence (P36888 563-993): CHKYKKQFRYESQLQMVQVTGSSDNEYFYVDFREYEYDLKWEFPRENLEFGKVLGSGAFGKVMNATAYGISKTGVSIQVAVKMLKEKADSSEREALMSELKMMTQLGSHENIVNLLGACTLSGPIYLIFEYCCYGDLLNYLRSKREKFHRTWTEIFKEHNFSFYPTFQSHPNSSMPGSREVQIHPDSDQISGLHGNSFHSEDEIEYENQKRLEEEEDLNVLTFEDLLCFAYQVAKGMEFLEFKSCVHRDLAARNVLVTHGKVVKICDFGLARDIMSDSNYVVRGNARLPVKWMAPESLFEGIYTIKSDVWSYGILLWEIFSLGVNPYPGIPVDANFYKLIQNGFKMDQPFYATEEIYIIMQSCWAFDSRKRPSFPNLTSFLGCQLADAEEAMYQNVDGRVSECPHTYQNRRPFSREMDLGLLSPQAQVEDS
Method: The compounds to be tested are then diluted in culture medium (without FCS, with 0.1% bovine serum albumin) and added to the cells. (Controls comprise medium without test compounds). After two hours' incubation at 37° C., recombinant VEGF is added; the final VEGF concentration is 20 ng/ml). After a further five minutes incubation at 37° C., the cells are washed twice with ice-cold PBS (phosphate-buffered saline) and immediately lysed in 100 μl lysis buffer per well. The lysates are then centrifuged to remove the cell nuclei, and the protein concentrations of the supernatants are determined using a commercial protein assay (BIORAD). The lysates can then either be immediately used or, if necessary, stored at −20° C. A sandwich ELISA is carried out to measure the VEGF-R2 phosphorylation: a monoclonal antibody to VEGF-R2 (for example Mab 1495.12.14; ProQinase, Freiburg, Germany) is immobilized on black ELISA plates (OptiPlate™ HTRF-96 from Packard). The plates are then washed and the remaining free protein-binding sites are saturated with 3% TopBlock® (Juro, Cat. # TB232010) in phosphate buffered saline with Tween 20® (polyoxyethylen(20)-sorbitane monolaurate, ICI/Uniquema) (PBST). The cell lysates (20 μg protein per well) are then incubated in these plates overnight at 4° C. together with an antiphosphotyrosine antibody coupled with alkaline phosphatase (PY20:AP from Zymed). […] The luminescence is measured in a Packard Top Count Microplate Scintillation Counter. The difference between the signal of the positive control (stimulated with VEGF) and that of the negative control (not stimulated with VEGF) corresponds to VEGF-induced VEGF-R2 phosphorylation (=100%). The activity of the tested substances is calculated as percent inhibition of VEGF-induced VEGF-R2 phosphorylation, wherein the concentration of substance that induces half the maximum inhibition is defined as the IC50 (inhibitory dose for 50% inhibition). […] Flt3 kinase inhibition is determined as follows: The baculovirus donor vector pFbacG01 (GIBCO) is used to generate a recombinant baculovirus expressing the amino acid region amino acids 563-993 of the cytoplasmic kinase domain of human Flt-3. The coding sequence for the cytoplasmic domain of Flt-3 is amplified by PCR from human c-DNA libraries (Clontech). The amplified DNA fragments and the pFbacG01 vector are made compatible for ligation by digestion with BamH1 and HindIII. Ligation of these DNA fragments results in the baculovirus donor plasmid Flt-3(1.1). The production of the viruses, the expression of proteins in Sf9 cells and the purification of the GST-fused proteins are performed as follows: Production of virus: Transfer vector (pFbacG01-Flt-3) containing the Flt-3 kinase domain is transfected into the DH10Bac cell line (GIBCO) and the transfected cells are plated on selective agar plates. Colonies without insertion of the fusion sequence into the viral genome (carried by the bacteria) are blue. Single white colonies are picked and viral DNA (bacmid) is isolated from the bacteria by standard plasmid purification procedures. Sf9 or Sf21 cells (American Type Culture Collection) are then transfected in flasks with the viral DNA using Cellfectin reagent. Determination of small scale protein expression in Sf9 cells: Virus containing media is collected from the transfected cell culture and used for infection to increase its titre. Virus containing media obtained after two rounds of infection is used for large-scale protein expression. For large-scale protein expression 100 cm^2 round tissue culture plates are seeded with 5×10^7 cells/plate and infected with 1 mL of virus-containing media (approx. 5 MOIs). After 3 days the cells are scraped off the plate and centrifuged at 500 rpm for 5 min. Cell pellets from 10-20, 100 cm^2 plates, are resuspended in 50 mL of ice-cold lysis buffer (25 mMTris-HCl, pH 7.5, 2 mM EDTA, 1% NP-40, 1 mM DTT, 1 mM PMSF). The cells are stirred on ice for 15 min and then centrifuged at 5000 rpms for 20 min. […]

Sequence of c-Src kinase (P12931 whole entry): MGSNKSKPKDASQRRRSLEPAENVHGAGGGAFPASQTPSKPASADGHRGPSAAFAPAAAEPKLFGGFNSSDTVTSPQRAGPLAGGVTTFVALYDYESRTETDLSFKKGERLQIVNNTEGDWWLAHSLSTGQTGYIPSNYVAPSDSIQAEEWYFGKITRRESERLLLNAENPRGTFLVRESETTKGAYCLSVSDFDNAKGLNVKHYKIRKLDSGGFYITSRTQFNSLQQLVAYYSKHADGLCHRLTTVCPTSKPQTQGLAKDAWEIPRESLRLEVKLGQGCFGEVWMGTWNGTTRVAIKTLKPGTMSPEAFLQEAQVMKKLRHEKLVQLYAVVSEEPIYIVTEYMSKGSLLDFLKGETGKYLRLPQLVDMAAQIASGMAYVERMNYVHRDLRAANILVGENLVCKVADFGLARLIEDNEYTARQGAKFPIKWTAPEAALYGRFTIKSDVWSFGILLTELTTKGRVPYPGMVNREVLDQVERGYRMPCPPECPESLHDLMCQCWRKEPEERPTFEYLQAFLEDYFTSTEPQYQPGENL

SMILES	IC50 [1] [µM]	IC50 [2] [µM]	IC50 [3] [µM]
CN1CCN(c2ccc(-c3cnn4c(N)c(-c5ccccc5)cnc34)cc2)CC1 [Example 7, 3-[4-(4-Methyl-piperazin-1-yl)-phenyl]-6-phenyl-pyrazolo[1,5-a]pyrimidin-7-ylamine]	< 10	–	–
CN1CCN(c2ccc(-c3cnn4c(N)c(-c5csc6ccccc56)cnc34)cc2)CC1 [Example 19, 6-Benzo[b]thiophen-3-yl-3-[4-(4-methyl-piperazin-1-yl)-phenyl]-pyrazolo[1,5-a]pyrimidin-7-ylamine]	< 10	< 10	–
COc1ccccc1-c1cnc2c(-c3ccc(N4CCN(C)CC4)cc3)cnn2c1N [Example 27, 6-(2-Methoxy-phenyl)-3-[4-(4-methyl-piperazin-1-yl)-phenyl]-pyrazolo[1,5-a]pyrimidin-7-ylamine]	< 10	–	–
CN1CCN(c2cccc(-c3cnn4c(N)c(-c5ccsc5)cnc34)c2)CC1 [Example 49, 3-[3-(4-Methyl-piperazin-1-yl)-phenyl]-6-thiophen-3-yl-pyrazolo[1,5-a]pyrimidin-7-ylamine]	–	–	< 10
